Assay results published in the NIST ThermoML archive (doi:10.1021/acs.jced.8b00037).

Experiment: molar heat capacity at constant volume
Settings: Liquid, Vacuum adiabatic calorimetry

COC [dimethyl ether]
Settings | molar heat capacity at constant volume [J/K/mol]
157.53 K, 4013 kPa | 69.69
159.72 K, 8322 kPa | 69.6
161.9 K, 12544 kPa | 69.78
164.07 K, 16672 kPa | 69.67
166.23 K, 20708 kPa | 69.85
168.38 K, 24704 kPa | 69.65
170.51 K, 28650 kPa | 69.79
172.64 K, 32529 kPa | 70.05
176.39 K, 3776 kPa | 68.85
178.57 K, 7593 kPa | 68.76
180.74 K, 11350 kPa | 68.76
182.9 K, 15062 kPa | 68.62
185.05 K, 18718 kPa | 68.78
187.2 K, 22325 kPa | 68.84
189.34 K, 25885 kPa | 68.95
191.46 K, 29382 kPa | 69
193.58 K, 32823 kPa | 69.21
200.6 K, 3313 kPa | 68.02
202.77 K, 6569 kPa | 67.99
204.93 K, 9792 kPa | 67.7
207.08 K, 12969 kPa | 68.02
209.23 K, 16115 kPa | 68
211.37 K, 19219 kPa | 68.42
213.5 K, 22288 kPa | 68.53
215.62 K, 25311 kPa | 68.58
217.74 K, 28297 kPa | 69.12
219.85 K, 31246 kPa | 69
223.34 K, 2896 kPa | 67.94
225.51 K, 5714 kPa | 67.91
227.67 K, 8494 kPa | 68.08
229.82 K, 11254 kPa | 68.44
231.97 K, 13976 kPa | 68.41
234.11 K, 16676 kPa | 68.64
236.24 K, 19342 kPa | 68.9
238.36 K, 21979 kPa | 68.71
240.48 K, 24585 kPa | 68.77
242.59 K, 27158 kPa | 69.15
244.69 K, 29702 kPa | 69.45
245.08 K, 2602 kPa | 68.32
246.78 K, 32213 kPa | 69.76
247.24 K, 5030 kPa | 68.61
249.4 K, 7443 kPa | 68.82
251.55 K, 9828 kPa | 69.15
253.7 K, 12195 kPa | 69.1
255.84 K, 14539 kPa | 69.14
257.97 K, 16865 kPa | 69.11
260.09 K, 19157 kPa | 69.43
261.13 K, 2479 kPa | 69.34
262.21 K, 21436 kPa | 69.63
263.3 K, 4661 kPa | 69.49
264.32 K, 23690 kPa | 69.84
265.47 K, 6829 kPa | 69.28
266.43 K, 25920 kPa | 69.92
267.63 K, 8973 kPa | 69.82
268.52 K, 28128 kPa | 69.96
269.79 K, 11103 kPa | 69.61
270.62 K, 30316 kPa | 69.95
271.93 K, 13210 kPa | 69.63
